# According to ChEMBL document CHEMBL5321213, “Nicolaioidesin C: An Antiausterity Agent Shows Promising Antitumor Activity in a Pancreatic Cancer Xenograft Mouse Model” (J Nat Prod, 2023):
# Experiments:
# PANC-1 = assay: Antimetastatic activity in human PANC-1 cells in DMEM media assessed as inhibition of colony formation at 20 uM incubated for 24 hrs followed by replacement with fresh medium and measured after 10 days by crystal violet staining-based assay relative to control; assay type: functional
# [1] = Toxicity in athymic BALB/c-nu mouse xenografted with human MIA PaCa-2 cells assessed as body weight loss at 2 to 10 mg/kg/day, ip administered five times per week for 4 weeks; assay type: organism-based; settings: in vivo, 672 h, dose 2-10 mg/kg/day
# MIA PaCa-2 [2] = assay: Antitumor activity against human MIA PaCa-2 cells xenografted in athymic BALB/c-nu mouse assessed as tumor growth inhibition at 2 mg/kg/day, ip administered five times per week for 4 weeks relative to control; assay type: functional; settings: MIA PaCa-2, 672 h, read-out: TGI
# MIA PaCa-2 [3] = assay: Antitumor activity against human MIA PaCa-2 cells xenografted in athymic BALB/c-nu mouse assessed as fold change in glutamic acid level in tumor at 10 mg/kg/day, ip administered five times per week for 4 weeks by LC-MS analysis; assay type: functional
# MIA PaCa-2 [4] = assay: Antitumor activity against human MIA PaCa-2 cells xenografted in athymic BALB/c-nu mouse assessed as fold change in uracil level in tumor at 10 mg/kg/day, ip administered five times per week for 4 weeks by LC-MS analysis; assay type: functional
# MIA PaCa-2 [5] = assay: Antitumor activity against human MIA PaCa-2 cells xenografted in athymic BALB/c-nu mouse assessed as fold change in benzoic acid level in tumor at 10 mg/kg/day, ip administered five times per week for 4 weeks by LC-MS analysis; assay type: functional
# MIA PaCa-2 [6] = assay: Antitumor activity against human MIA PaCa-2 cells xenografted in athymic BALB/c-nu mouse assessed as fold change in cytosine level in tumor at 10 mg/kg/day, ip administered five times per week for 4 weeks by LC-MS analysis; assay type: functional
# MIA PaCa-2 [7] = assay: Antitumor activity against human MIA PaCa-2 cells xenografted in athymic BALB/c-nu mouse assessed as fold change in alanine level in tumor at 2 mg/kg/day, ip administered five times per week for 4 weeks by LC-MS analysis; assay type: functional
# MIA PaCa-2 [8] = assay: Antitumor activity against human MIA PaCa-2 cells xenografted in athymic BALB/c-nu mouse assessed as fold change in N-acetylneuraminic acid level in tumor at 2 mg/kg/day, ip administered five times per week for 4 weeks by LC-MS analysis; assay type: functional
structure (smiles),measurement,setting,value
COc1cc(O)c(C(=O)[C@@H]2CC=C(CCC=C(C)C)C[C@H]2c2ccccc2)c(O)c1,inhibition at 20 µM,PANC-1,82%
same,Activity,[1],Non-Toxic
same,inhibition in vivo at 2 mg/kg/day,MIA PaCa-2 [2],51%
same,fold change (FC),MIA PaCa-2 [3],0.25
same,fold change (FC),MIA PaCa-2 [4],0.09
same,fold change (FC),MIA PaCa-2 [5],0.43
same,fold change (FC),MIA PaCa-2 [6],0.44
same,fold change (FC),MIA PaCa-2 [7],0.49
same,fold change (FC),MIA PaCa-2 [8],0.33
